Assay results from US20240228542A1, “LYTIC DOMAIN FUSION CONSTRUCTS, CHECKPOINT INHIBITORS, AND METHODS OF MAKING AND USING SAME” (A28 Therapeutics Inc., priority 2020, published 2024).

Assays:
[1] = tested on: 2C12; assay: Cytotoxicity in 2C12 murine ovarian cancer cells (24 h); type: cell-based; details: 2C12, 24 h; read-out: In vitro activity (IC50)
Procedure: Murine ovarian cancer cell lines (ID8, IG10, IF5, and 2Cl2) were grown in RPMI 1640 media with 10% Fetal Bovine Serum. Cells were typically seeded (3000 cells per well) into 96 well plates and media was replaced after 48 hours of incubation. […] Phor18-LHRH was provided in lyophilized form was dissolved in saline and added to cells. The duration of incubation was 24 h at 37° C. Cell viability was assessed after 24 hours using a luminometric assays (Promega, CellTiter-0Glo 2.0, G9243). Controls contained saline or 0.1% triton as reference for 0 and 100% cell death, respectively.
Data were processed and analyzed using GraphPad Prism version 7.00 for Windows (GraphPad Software, San Diego California). Statistical analysis for significance was determined by a two-tailed Student's T-test. Each study was conducted to achieve an […] of at least 6.
In vitro activities were expressed as IC50 values for each cell line, time point and compound tested that were calculated using the Hill equation (Graph Pad Prizm software).

[2] = tested on: ID8 murine ovarian carcinoma; assay: Orthotopic ID8 murine ovarian carcinoma syngeneic model; type: in vivo, C57BL/6 mice
Procedure: Ovarian Cancer Orthotopic Syngeneic Mouse model—Eight-to 12-week-old female C57BL/6 mice were purchased from Taconic Farms, ID8 or IG10 cells at a concentration off 2×10^6 cells/0.2 mL per mouse were injected into the intraperitoneal cavity of C57BL/6. All mouse studies were approved by the Institutional Animal Care and Use Committee and were cared for in accordance with guidelines set forth by the American Association for Accreditation of Laboratory Animals. After cancer cell injection, mice were randomly divided into four treatment groups: 1) untreated control, 2) PD-L1 antibody (200 μg/kg intraperitoneally twice a week), 3) EP-100 (0.2 mg/kg intravenously twice a week) and 4) PD-L1 antibody plus EP-100. Treatment was initiated ten days after cancer cell injection into the intraperitoneal cavity.
C57BL/6 female mice were injected orthotopically with luciferase labeled ID8 (ID8-L) murine ovarian cancer cell line (1×10^6 cells). Mice were monitored for tumor take using a luminescent imaging system. Treatments started on day 7 after tumor cell injection and continued on days 9, 12, 16, 19, 22, and 26 (FIG. 17A). […] Each treatment and control group consisted of 10 mice. At necropsy on day 28, ascites fluids were removed and measured, and tumors were removed and weighed.
Significance between treatment groups was assessed using Wilcoxon signed Rank test analysis and ANOVA.

[3] = tested on: immune cells in ascites; assay: Immune cell profiling (FACS) of ID8 ascites; type: in vivo, C57BL/6 mice
Procedure: Immune Profiling Assay—Immunophenotypic analyses of splenocytes and single cell suspensions from tumors were assessed by flow cytometry. Abs to stain for MDSCs were CD11b-APC (clone M1/70; BD Biosciences), Ly6G-FITC (clone 1A8; BD Biosciences) and Ly6C-PE (clone AL-21; BD Biosciences). For T-cell activation markers, cells were stained with Ab specific for CD4-PE-Cy7 (clone RM4-5; BD Biosciences), CD8-PE-Cy7 (clone 53-6.7; BD Biosciences), CD62L-PE (clone MEL-14; BD Biosciences) and CD44-FITC (clone IM7; Biolegend). Cells were incubated on ice for 30 min, washed and fixed in phosphate buffered saline (PBS) containing 1% formalin for flow cytometric analysis on an LSRII flow cytometer (BD Biosciences).
Immune cell profiling was conducted on ascites (N=3) and tumor tissue (N=3) by processing the samples by the following method and analyzed through Fluorescent Activated Cell Sorting (FACS), see Table 8. Cells were incubated for 30 minutes on ice, washed and fixed in phosphate buffered saline containing 1% formalin for flow cytometric analysis on an LSRII flow cytometer.

KFAKFAKKFAKFAKKFAKQHWSYGLRPG [Phor18-LHRH]
IC50 [1]: 1020 nM | reduction of ascites ([2]; ID8): 1.5 fold | reduction of live tumor size ([2]; ID8): 2.1 fold | reduction of tumor weights ([2]; ID8): 3 fold | relative reduction of ascites volumes ([2]; ID8): 35.5% | luminescence counts of tumor at the end of the study ([2]; ID8-luciferase, mean±SD, start 9.2±1.2×10^4): 88.6±21.5 ×10^4 | tumor weights at necropsy ([2]; ID8, Mean±SEM, N=10, controls 1.06±0.08 g): 0.49 ± 0.07 g | ascites volumes ([2]; ID8, Mean±SEM, N=10, vehicle 12.26±0.6 ml): 8.0 ± 0.7 mL | increase of CD8+ T/Treg ratio [3]: 7 fold | Monocytic myeloid suppressor cells (mMDSC) ([3]; % of CD45+ cells, controls 0.62±0.08%): 0.21±0.01% | CD8+ T cells ([3]; % of CD45+ cells, controls 1.9±0.3%): 8.9±2.4% | B cells ([3]; % of CD45+ cells, controls 9.8±1.8%): 1.5±0.14% | Natural killer (NK) cells ([3]; % of CD45+ cells, controls 10.3±0.8%): 10.2±0.08% | Dendritic cells (DC) ([3]; % of CD45+ cells, controls 18.5±1.1%): 15.1±0.2% | Macrophages ([3]; % of CD45+ cells, controls 23.8±5.1%): 25.6±0.7% | CD45+ cell fraction of life cells ([3]; Mean±SEM, controls 10.5±1.8%): 15.6±2.1% | ratio of CD8+ T cells to regulatory T cells ([3]; controls 2.6±0.6): 17.32±4.1
